This note sets out measurements from US20230158109A1, “USE OF CD83 IN COMBINATION THERAPIES” (Colmmune, Inc., priority 2006, published 2023).

The test system of assay [1] is C57BL/6 Hearts in BALB/c Recipients. In words: Intra-abdominal heterotopic heart transplantation, graft survival, C57BL/6 to BALB/c. Particulars: sCD83 100 μg i.p. daily day -1 to 7, then every other day to day 28, tacrolimus 8 mg/kg/day oral, MMF 80 mg/kg/day oral. Format: in vivo, mouse. The procedure: Treatment with tacrolimus was by daily oral administration of a subtherapeutic dose of 8 mg/kg/day, and treatment with MMF was by daily oral administration of a low dose of 80 mg/kg/day.
In further experiments, transplant recipients were treated with a shorter course of administrations and a different route of administration.

Assay [2] concerns C3H Hearts in C57BL/6 Recipients. The assay is described as follows: Heterotopic heart transplantation, graft survival, C3H to C57BL/6. Conditions: sCD83 100 μg i.p. daily days 1-7 then q.o.d. days 8-16, sirolimus 2 mg/kg p.o. days 0-14, anti-CD45RB mAb 100 μg i.v. days 0-14.
Experimental: (§1) Hearts were removed from donor mice as indicated and transplanted into the peritoneal cavity of recipient mice (i.e., heterotopic transplantation). Recipient mice were treated as indicated, with some treatments beginning prior to transplantation. Survival of the allograft was monitored and scored as follows: “A,” beating strongly; “B,” mild decline in the intensity of pulsation; “C,” noticeable decline in the intensity of pulsation; “D,” complete cessation of cardiac impulses. Mean survival time of the transplanted tissue was determined for each treatment.
In a further set of experiments, C3H mouse hearts were transplanted into the peritoneal cavity of C57BL/6 mice (results shown in Table 3 and FIG. 7). […] Other treatments included subtherapeutic doses of either anti-CD45RB monoclonal antibody (“mAb”) (i.e., 100 μg/mouse every day from days 0 through 14 by intravenous injection) or sirolimus (i.e., 2 mg/kg every day from days 0 through 14 by oral administration (“p.o.”)).
In assay [3] the test system is C3H Hearts in BALB/c Recipients. The assay is described as follows: Heterotopic heart transplantation, graft survival, C3H to BALB/c. Particulars: sCD83 100 μg i.p. daily day -1 to 28, sirolimus 2 mg/kg oral day 0-14, anti-CD45RB 100 μg i.v. day 0-14.
Experimental: as §1
In a first set of experiments, C3H donor mice and BALB/c recipient mice were used. In this set of experiments, sCD83 treatment began on day −1 (i.e., the day prior to transplantation) and lasted until day 28; each day, 100 μg of sCD83 was administered to each mouse by intraperitoneal injection. Sirolimus treatment began on day 0 (i.e., the day of transplantation) and continued until day 14; each day, 2 mg/kg of sirolimus was administered orally to each mouse. Anti-CD45RB treatment began on day 0 and continued until day 14; each day, 100 μg of anti-CD45RB (BioExpress, Inc., West Lebanon, New Hampshire) was administered to each mouse intravenously.

On to `C=CC[C@@H]1/C=C(\C)C[C@H](C)C[C@H](OC)[C@H]2O[C@@](O)(C(=O)C(=O)N3CCCC[C@H]3C(=O)O[C@H](/C(C)=C/[C@@H]3CC[C@@H](O)[C@H](OC)C3)[C@H](C)[C@@H](O)CC1=O)[C@H](C)C[C@@H]2OC` [Tacrolimus, tacrolimus, reference compound], for which, in assay [1], the “MST” value came out at 16.3 ± 1.0 days.

Take `CO[C@H]1C[C@@H]2CC[C@@H](C)[C@@](O)(O2)C(=O)C(=O)N2CCCC[C@H]2C(=O)O[C@H]([C@H](C)C[C@@H]2CC[C@@H](O)[C@H](OC)C2)CC(=O)[C@H](C)/C=C(\C)[C@@H](O)[C@@H](OC)C(=O)[C@H](C)C[C@H](C)/C=C/C=C/C=C/1C` [Sirolimus, sirolimus, reference compound]: the “MST” value in assay [2] is reported as 16.7 ± 2.1 days; in assay [3], 21.3 ± 6.2 days.
